Results taken from ChEMBL document CHEMBL1201862, “PubChem BioAssay data set” (2004).
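Five compound concentrations were applied to cells in 96-well plates for 48 hours; endpoints were derived by simple linear interpolation of the resulting dose-response curve. Here, GI50 denotes the concentration required for 50% inhibition of growth.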 Activity calls are given as the source filed them. Cut-off read from the data, not from the text of the source: active = GI50 up to about 1.1 µM and inactive = higher.

Columns and labels:
Assay in all cases: DTP human tumour cell line panel, 48 h
SNB-19 = system: SNB-19
SK-OV-3 = system: SK-OV-3
NCI-H23 = system: NCI-H23
SK-MEL-28 = system: SK-MEL-28
RPMI-8226 = system: RPMI-8226
EKVX = system: EKVX
MOLT-4 = system: MOLT-4
KM-20L2 = system: KM-20L2
UACC-62 = system: UACC-62
DLD-1 = system: DLD-1
SW-620 = system: SW-620
SN12C = system: SN12C
OVCAR-5 = system: OVCAR-5
UACC-257 = system: UACC-257
CAKI-1 = system: CAKI-1
SR = system: SR
OVCAR-8 = system: OVCAR-8
SK-MEL-5 = system: SK-MEL-5
HOP-62 = system: HOP-62
Malme-3M = system: Malme-3M
SK-MEL-2 = system: SK-MEL-2
A549 = system: A549
HL-60 = system: HL-60
ACHN = system: ACHN
LXFL 529 = system: LXFL 529
OVCAR-3 = system: OVCAR-3
M14 = system: M14
NCI-H226 = system: NCI-H226
KM12 = system: KM12
NCI-H522 = system: NCI-H522
IGROV-1 = system: IGROV-1
786-0 = system: 786-0
SNB-78 = system: SNB-78
U-251 = system: U-251
NCI-H460 = system: NCI-H460
A498 = system: A498
SF-268 = system: SF-268
UO-31 = system: UO-31
HT-29 = system: HT-29
OVCAR-4 = system: OVCAR-4
HCC 2998 = system: HCC 2998
TK-10 = system: TK-10
HOP-92 = system: HOP-92
SNB-75 = system: SNB-75
SF-295 = system: SF-295
CCRF-CEM = system: CCRF-CEM
K562 = system: K562
M19-MEL = system: M19-MEL
LOX IMVI = system: LOX IMVI
HCT-116 = system: HCT-116
HCT-15 = system: HCT-15
COLO 205 = system: COLO 205
SF-539 = system: SF-539
T47D = system: T47D
NCI/ADR-RES = system: NCI/ADR-RES
BT-549 = system: BT-549
DU-145 = system: DU-145
MCF7 = system: MCF7
MDA-N = system: MDA-N
RXF 393 = system: RXF 393
PC-3 = system: PC-3
MDA-MB-231 = system: MDA-MB-231
MDA-MB-435 = system: MDA-MB-435
Hs-578T = system: Hs-578T

O=C(O)c1cc(=O)c2cc(C(=O)c3cccs3)c(Cl)c(Cl)c2o1
GI50 (SNB-19): > 100 µM (inactive)
GI50 (SK-OV-3): > 100 µM (inactive)
GI50 (NCI-H23): > 100 µM (inactive)
GI50 (SK-MEL-28): > 100 µM (inactive)
GI50 (RPMI-8226): > 100 µM (inactive)
GI50 (EKVX): > 100 µM (inactive)
GI50 (MOLT-4): > 100 µM (inactive)
GI50 (KM-20L2): > 100 µM (inactive)
GI50 (UACC-62): > 100 µM (inactive)
GI50 (DLD-1): > 100 µM (inactive)
GI50 (SW-620): > 100 µM (inactive)
GI50 (SN12C): > 100 µM (inactive)
GI50 (OVCAR-5): > 100 µM (inactive)
GI50 (UACC-257): > 100 µM (inactive)
GI50 (CAKI-1): > 100 µM (inactive)
GI50 (SR): > 100 µM (inactive)
GI50 (OVCAR-8): > 100 µM (inactive)
GI50 (SK-MEL-5): > 100 µM (inactive)
GI50 (HOP-62): > 100 µM (inactive)
GI50 (Malme-3M): > 100 µM (inactive)
GI50 (SK-MEL-2): > 100 µM (inactive)
GI50 (A549): > 100 µM (inactive)
GI50 (HL-60): > 100 µM (inactive)
GI50 (ACHN): > 100 µM (inactive)
GI50 (LXFL 529): > 100 µM (inactive)
GI50 (OVCAR-3): > 100 µM (inactive)
GI50 (M14): > 100 µM (inactive)
GI50 (NCI-H226): > 100 µM (inactive)
GI50 (KM12): > 100 µM (inactive)
GI50 (NCI-H522): > 100 µM (inactive)
GI50 (IGROV-1): > 100 µM (inactive)
GI50 (786-0): > 100 µM (inactive)
GI50 (SNB-78): > 100 µM (inactive)
GI50 (U-251): > 100 µM (inactive)
GI50 (NCI-H460): > 100 µM (inactive)
GI50 (A498): > 100 µM (inactive)
GI50 (SF-268): > 100 µM (inactive)
GI50 (UO-31): > 100 µM (inactive)
GI50 (HT-29): > 100 µM (inactive)
GI50 (OVCAR-4): > 100 µM (inactive)
GI50 (HCC 2998): > 100 µM (inactive)
GI50 (TK-10): > 100 µM (inactive)
GI50 (HOP-92): > 100 µM (inactive)
GI50 (SNB-75): > 100 µM (inactive)
GI50 (SF-295): > 100 µM (inactive)
GI50 (CCRF-CEM): > 100 µM (inactive)
GI50 (K562): > 100 µM (inactive)

COC(=O)NC(=O)c1cn(C2OC(CO)C(O)C2O)c(=O)[nH]c1=O (stereo not given)
GI50 (SNB-19): > 100 µM (inactive)
GI50 (M19-MEL): > 100 µM (inactive)
GI50 (SK-OV-3): > 100 µM (inactive)
GI50 (NCI-H23): > 100 µM (inactive)
GI50 (SK-MEL-28): > 100 µM (inactive)
GI50 (RPMI-8226): > 100 µM (inactive)
GI50 (MOLT-4): > 100 µM (inactive)
GI50 (KM-20L2): > 100 µM (inactive)
GI50 (UACC-62): > 100 µM (inactive)
GI50 (DLD-1): > 100 µM (inactive)
GI50 (SW-620): > 100 µM (inactive)
GI50 (LOX IMVI): > 100 µM (inactive)
GI50 (HCT-116): > 100 µM (inactive)
GI50 (SN12C): > 100 µM (inactive)
GI50 (OVCAR-5): > 100 µM (inactive)
GI50 (UACC-257): > 100 µM (inactive)
GI50 (CAKI-1): > 100 µM (inactive)
GI50 (HCT-15): > 100 µM
GI50 (SR): > 100 µM (inactive)
GI50 (OVCAR-8): > 100 µM (inactive)
GI50 (COLO 205): > 100 µM (inactive)
GI50 (HOP-62): > 100 µM (inactive)
GI50 (Malme-3M): > 100 µM (inactive)
GI50 (SK-MEL-2): > 100 µM (inactive)
GI50 (A549): > 100 µM (inactive)
GI50 (HL-60): > 100 µM (inactive)
GI50 (ACHN): > 100 µM (inactive)
GI50 (LXFL 529): > 100 µM (inactive)
GI50 (OVCAR-3): > 100 µM (inactive)
GI50 (M14): > 100 µM (inactive)
GI50 (NCI-H226): > 100 µM (inactive)
GI50 (KM12): > 100 µM (inactive)
GI50 (NCI-H522): > 100 µM (inactive)
GI50 (IGROV-1): > 100 µM (inactive)
GI50 (SF-539): > 100 µM (inactive)
GI50 (786-0): > 100 µM (inactive)
GI50 (SNB-78): > 100 µM (inactive)
GI50 (U-251): > 100 µM (inactive)
GI50 (NCI-H460): > 100 µM (inactive)
GI50 (SF-268): > 100 µM (inactive)
GI50 (UO-31): > 100 µM (inactive)
GI50 (HT-29): > 100 µM (inactive)
GI50 (OVCAR-4): > 100 µM (inactive)
GI50 (HCC 2998): > 100 µM (inactive)
GI50 (TK-10): > 100 µM (inactive)
GI50 (HOP-92): > 100 µM (inactive)
GI50 (SNB-75): > 100 µM (inactive)
GI50 (SF-295): > 100 µM (inactive)
GI50 (K562): > 100 µM (inactive)

N=C(N)SCCCN
GI50 (T47D): 32.2 µM (inactive)
GI50 (SNB-19): 20.7 µM (inactive)
GI50 (SK-OV-3): 22.4 µM (inactive)
GI50 (NCI/ADR-RES): 5.02 µM (inactive)
GI50 (NCI-H23): 6.1 µM (inactive)
GI50 (SK-MEL-28): 28.2 µM (inactive)
GI50 (RPMI-8226): 18.5 µM (inactive)
GI50 (EKVX): 35.4 µM (inactive)
GI50 (BT-549): 4.06 µM (inactive)
GI50 (MOLT-4): 0.368 µM (active)
GI50 (UACC-62): 17.6 µM (inactive)
GI50 (DU-145): 20.4 µM (inactive)
GI50 (SW-620): 26.4 µM (inactive)
GI50 (LOX IMVI): 3.3 µM (inactive)
GI50 (HCT-116): 3.86 µM (inactive)
GI50 (SN12C): 25.2 µM (inactive)
GI50 (OVCAR-5): 32.6 µM (inactive)
GI50 (UACC-257): 5.4 µM (inactive)
GI50 (CAKI-1): 4.32 µM (inactive)
GI50 (HCT-15): 5.02 µM
GI50 (SR): 3.3 µM (inactive)
GI50 (OVCAR-8): 3.87 µM (inactive)
GI50 (COLO 205): 13.7 µM (inactive)
GI50 (SK-MEL-5): 15 µM (inactive)
GI50 (HOP-62): 12.1 µM (inactive)
GI50 (Malme-3M): 8.77 µM (inactive)
GI50 (SK-MEL-2): 13.2 µM (inactive)
GI50 (A549): 37.7 µM (inactive)
GI50 (HL-60): 1.87 µM (inactive)
GI50 (ACHN): 4.29 µM (inactive)
GI50 (MCF7): 5.5 µM (inactive)
GI50 (OVCAR-3): 9.57 µM (inactive)
GI50 (M14): 3.52 µM (inactive)
GI50 (MDA-N): 3.95 µM (inactive)
GI50 (RXF 393): 4.29 µM (inactive)
GI50 (NCI-H226): 18.3 µM (inactive)
GI50 (KM12): 24.2 µM (inactive)
GI50 (NCI-H522): 5.41 µM (inactive)
GI50 (IGROV-1): 3.83 µM (inactive)
GI50 (SF-539): 5.81 µM (inactive)
GI50 (786-0): 4.71 µM (inactive)
GI50 (U-251): 6.11 µM (inactive)
GI50 (NCI-H460): 4.13 µM (inactive)
GI50 (PC-3): 15.6 µM (inactive)
GI50 (A498): 32.1 µM (inactive)
GI50 (SF-268): 5.3 µM (inactive)
GI50 (UO-31): 17.7 µM (inactive)
GI50 (HT-29): 16 µM (inactive)
GI50 (OVCAR-4): 6.5 µM (inactive)
GI50 (MDA-MB-231): 3.3 µM (inactive)
GI50 (MDA-MB-435): 3.18 µM (inactive)
GI50 (HCC 2998): 0.0455 µM (active)
GI50 (TK-10): 3.65 µM (inactive)
GI50 (HOP-92): 4.94 µM (inactive)
GI50 (SNB-75): 33.7 µM (inactive)
GI50 (SF-295): 21.6 µM (inactive)
GI50 (CCRF-CEM): 1.39 µM (inactive)
GI50 (Hs-578T): 5.61 µM (inactive)
GI50 (K562): 6.03 µM (inactive)
